Values joined by “and” are separate entries in the source; they are usually repeats but may differ in a detail not shown here. Equal values may be shown once. Read-outs that look alike come from different tables or passages of the source.
Columns and labels:
[1] = system: newborn cells in the dentate gyrus; experiment: Chronic social defeat stress (CSDS): DG cellular proliferation (BrdU) and apoptosis (AC3); assay type: in vivo, mouse (Ghsr-null and wild-type)
Text: FIG. 40. Effects of P7C3 on DG cellular proliferation and apoptosis following CSDS. (a) Protocol schematic. (b-e) BrdU-immunoreactive and AC3-immunoreactive cell counts in the dorsal and ventral DG of CSDS-exposed and non-CSDS-exposed mice treated with P7C3 vs. vehicle. Group sizes indicated. (f-k) Representative photomicrograph images of double-immunolabeled (BrdU and AC3) ventral DG sections. (l-q) Magnified images of immunoreactive cells (AC3, leftward-facing arrow; BrdU, rightward-facing arrow). Scale bar in (k; 100 μm) pertains to (f-k), in (q; 25 μm) pertains to (l-q). *P<0.05, **P<0.01, ***P<0.001, as compared to respective non-CSDS-exposed, vehicle-treated control group.
It was next investigated whether protecting neural precursor cells from CSDS-associated apoptosis might help protect against the depressive-like phenotype. To test this idea, P7C3 was utilized, a neuroprotective aminopropyl carbazole that elevates hippocampal neurogenesis by blocking apoptosis without affecting the proliferation rate of hippocampal neural precursor cells in the dentate gyrus. A twice-daily schedule of intraperitoneal P7C3 injections (20 mg/kg/d in divided doses) was initiated two days prior to CSDS and continued throughout the 10 day procedure for both wild-type and Ghsr-null littermates. […]
CSDS was performed similar to methods used previously in the lab (J. C. Chuang et al., Ghrelin mediates stress-induced food-reward behavior in mice. J Clin Invest 121, 2684 (2011)). […] Ethovision 3.0 software (Noldus, Leesburg, Va.) measured the duration spent in the interaction zone or in the corners. […]
Immunohistochemistry and quantification were performed as described previously (J. C. Chuang et al., Ghrelin mediates stress-induced food-reward behavior in mice. J Clin Invest 121, 2684 (2011); J. E. Malberg et al., Chronic antidepressant treatment increases neurogenesis in adult rat hippocampus. J Neurosci 20, 9104 (2000); A. A. Pieper et al., Discovery of a proneurogenic, neuroprotective chemical. Cell 142, 39 (2010)). […]

[2] = system: Ghsr-null and wild-type mice; experiment: Caloric restriction: DG apoptosis (AC3) and forced swim test; assay type: in vivo, mouse
Text: FIG. 42. Effects of P7C3 on caloric restriction-induced DG cell survival and antidepressant-like behavior, as measured by FST. (a) Protocol schematic. (b, c) AC3-immunoreactive cell counts in the DG of calorie-restricted and ad libitum-fed mice treated with P7C3 vs. vehicle. (d, e) FST immobility time. Group sizes indicated. (f-k) Representative photomicrograph images of AC3-immunolabeled ventral DG sections. (l-p) Magnified images of AC3-immunoreactive cells. Scale bar in (k; 150 μm) pertains to (f-k), in (p; 25 μm) pertains to (l-p). *P<0.05, **P<0.01, as compared to respective ad libitum-fed, vehicle-treated control group. ^#P<0.05, comparing compound treatment.
Prolonged caloric restriction in wild-type mice elicits an antidepressant-like response in the FST (decreased immobility), whereas this effect is not observed in Ghsr-null mice. To investigate whether this might be related to differences in apoptosis in the DG, similar to that observed above following CSDS, Ghsr-null and wild-type littermates were exposed to ad libitum food access vs. 60% caloric restriction for 10 days. Five days prior to this exposure and throughout the 10-day feeding period, mice received either P7C3 or vehicle. On Day 16, FST performance was assessed, followed by sacrifice of the animals for quantification of AC3+ cells in the DG (FIG. 42, panel a).
The 60% calorie restriction protocol was performed as previously (M. Lutter et al., The orexigenic hormone ghrelin defends against depressive symptoms of chronic stress. Nat Neurosci 11, 752 (2008)). Mice received twice-daily injections of either P7C3 (20 mg/kg/d in divided doses) or vehicle 5 days prior to and during 10 days of calorie restriction or ad-lib feeding, replicating the injection protocol used for the CSDS studies. On Day 16, the forced swim test was performed for each mouse as done previously.

[3] = Pharmacokinetic analysis in plasma and whole brain tissue; assay type: in vivo, mouse; conditions: for concentration at 5 h: brain, five hours after dosing, read-out: brain level
Text: Pharmacokinetic analysis of Example 45 Compound in plasma and whole brain tissue was undertaken after single IV, IP and oral gavage administrations. […] These favorable pharmacological properties facilitated a dose response experiment wherein daily oral administration of Example 45 Compound to adult mice was monitored for both brain levels of the chemical and pro-neurogenic efficacy (FIG. 7).

[4] = caloric-restricted Ghsr-null mice
[5] = caloric-restricted wild-type mice

Row | Structure (SMILES) | AC3+ cells in the ventral DG after CSDS ([1]; 20 mg/kg/d i.p. in divided doses) | BrdU+ cells in the DG after CSDS ([1]; 20 mg/kg/d i.p. in divided doses, wild type and Ghsr-null mice) | BrdU or AC3 immunoreactivity in the DG ([1]; non-stressed control animals) | AC3+ cells in the DG [2, 4] | FST immobility [2, 4] | AC3+ cells in the DG [2, 5] | FST immobility [2, 5] | concentration at 5 h ([3]; mouse, oral 1 mg/kg) | concentration at 5 h ([3]; mouse, oral 2.5 mg/kg) | concentration at 5 h ([3]; mouse, oral 5 mg/kg) | half-life ([3]; mouse, plasma, after IP delivery, read-out: plasma terminal half life (converted)) | blood-brain barrier crossing ([3]; single IV, IP and oral gavage administrations) | oral bioavailability ([3]; single oral gavage administration)
1 | OC(CNc1ccccc1)Cn1c2ccc(Br)cc2c2cc(Br)ccc21 (stereo not shown) [Example P7C3] | blocked by P7C3 administration | preserved normal levels of neurogenesis throughout both dorsal and ventral regions of the DG | did not significantly augment BrdU or AC3 immunoreactivity | blocked the increase in apoptosis observed after caloric restriction | significantly decrease immobility | did not further reduce the number of AC3+ cells | had no further effect on reducing immobility |  |  |  |  |  | 
2 | OC(CNc1ccccc1)Cn1c2ccc(Br)cc2c2cc(Br)ccc21 (stereo not shown) [Example 45 Compound] |  |  |  |  |  |  |  | 213 nM and 101 ng/g | 1.13 µM and 534 ng/g | 1.35 µM and 640 ng/g | 6.7 h | readily able to cross the blood-brain barrier | orally bioavailable
